≈ marks a conversion by molar mass, not a printed value. Calls of active or inactive are those of the source. The calls are words filed in the database; no cut-off is given here. Peptide text beside a SMILES is read from it.

Three compounds from ChEMBL document CHEMBL3593201, “Isolation, Characterization, and Synthesis of the Barrettides: Disulfide-Containing Peptides from the Marine Sponge Geodia barretti” (J Nat Prod, 2015) can be followed below.

The test system of data set [1] is Staphylococcus aureus. Briefly: Antimicrobial activity against Staphylococcus aureus ATCC 29213 up to 80 uM. It is filed as functional, organism-based.
The test system of data set [2] is Amphibalanus improvisus. Description: Anti-fouling activity against Balanus improvisus barnacle larvae assessed as settlement propensity at 6 uM incubated for 4 days (reference value: 64 +/- 8%). In kind it is functional.
Data set [3] deals with Escherichia coli. Briefly: Antimicrobial activity against Escherichia coli ATCC 25922 up to 80 uM. In kind it is functional, organism-based.
The subject of data set [4] is Amphibalanus improvisus. Description: Anti-fouling activity against Balanus improvisus barnacle larvae assessed as inhibition of settlement propensity at 6 uM incubated for 4 days. In kind it is functional, organism-based.
In data set [5] the test system is Amphibalanus improvisus. Description: Toxicity against Balanus improvisus barnacle larvae assessed as number of dead larvae at 0.06 to 6 uM incubated for 24 hrs. As to conditions: in vivo. In kind it is organism-based.
The subject of data set [6] is Amphibalanus improvisus. Briefly: Anti-fouling activity against Balanus improvisus barnacle larvae assessed as inhibition of settlement propensity at 0.6 uM incubated for 4 days. In kind it is functional, organism-based.
Data set [7] deals with Staphylococcus aureus. Description: Antimicrobial activity against Staphylococcus aureus ATCC 29213. It is filed as functional.
Data set [8] relates to Escherichia coli. Briefly: Antimicrobial activity against Escherichia coli ATCC 25922. In kind it is functional.

As for `[H][C@@]12CCCN1C(=O)[C@H](CC(C)C)NC(=O)[C@]1([H])CSSC[C@]([H])(NC(=O)[C@H](Cc3ccccc3)NC(=O)[C@@H](NC(=O)[C@@H]3CCCN3C(=O)[C@H](CO)NC(=O)[C@@H](NC(=O)[C@@H](N)CC(=O)O)C(C)C)CSSC[C@@H](C(=O)N[C@@H](CC(=O)O)C(=O)N[C@@H](C)C(=O)N[C@@H](CO)C(=O)N[C@@H](CCCNC(=N)N)C(=O)NCC(=O)N[C@H](C(=O)N[C@@H](CC(N)=O)C(=O)N3CCC[C@H]3C(=O)O)[C@@H](C)O)NC(=O)[C@H](CC(N)=O)NC(=O)[C@H](CC(=O)O)NC2=O)C(=O)N[C@@H](C(C)C)C(=O)N[C@@H](CCC(=O)O)C(=O)N[C@@H](CC(=O)O)C(=O)N[C@@H](CCC(=O)O)C(=O)N[C@@]([H])([C@@H](C)O)C(=O)N[C@@H](CO)C(=O)NCC(=O)N[C@@H](C)C(=O)N[C@@H](CCCCN)C(=O)N[C@@]([H])([C@@H](C)O)C(=O)N1` (HELM PEPTIDE1{D.V.S.P.C.F.C.V.E.D.E.T.S.G.A.K.T.C.L.P.D.N.C.D.A.S.R.G.T.N.P}$PEPTIDE1,PEPTIDE1,5:R3-23:R3|PEPTIDE1,PEPTIDE1,7:R3-18:R3$$$V2.0), the outcome with Staphylococcus aureus [1] and with Escherichia coli [3] was inactive. In addition, the Activity in the data set with Amphibalanus improvisus [2] was 8%; in the data set on Amphibalanus improvisus [5], “Non-toxic”. The inhibition result with Amphibalanus improvisus [4] was “Active”.

On to `[H][C@@]12CCCN1C(=O)[C@H](C(C)C)NC(=O)[C@]1([H])CSSC[C@]([H])(NC(=O)[C@H](Cc3ccccc3)NC(=O)[C@@H](NC(=O)[C@@H]3CCCN3C(=O)[C@H](CO)NC(=O)[C@@H](NC(=O)[C@@H](N)CC(=O)O)C(C)C)CSSC[C@@H](C(=O)N[C@@H](CC(=O)O)C(=O)N[C@@H](C)C(=O)N[C@@H](CO)C(=O)N[C@@H](CCCNC(=N)N)C(=O)NCC(=O)N[C@H](C(=O)N[C@@H](CC(N)=O)C(=O)N3CCC[C@H]3C(=O)O)[C@@H](C)O)NC(=O)[C@H](CC(N)=O)NC(=O)[C@H](CC(=O)O)NC2=O)C(=O)N[C@@H](C(C)C)C(=O)N[C@@H](CCC(=O)O)C(=O)N[C@@H](CC(=O)O)C(=O)N[C@@H](CCC(=O)O)C(=O)N[C@@]([H])([C@@H](C)O)C(=O)N[C@@H](CO)C(=O)NCC(=O)N[C@@H](C)C(=O)N[C@@H](CCCCN)C(=O)N[C@@]([H])([C@@H](C)O)C(=O)N1` (HELM PEPTIDE1{D.V.S.P.C.F.C.V.E.D.E.T.S.G.A.K.T.C.V.P.D.N.C.D.A.S.R.G.T.N.P}$PEPTIDE1,PEPTIDE1,5:R3-23:R3|PEPTIDE1,PEPTIDE1,7:R3-18:R3$$$V2.0), for which the result with Staphylococcus aureus [1] and in the data set with Escherichia coli [3] was inactive. Besides, the results for the Activity in the data set with Amphibalanus improvisus [2] and with Amphibalanus improvisus [5] were 15% and “Non-toxic”, respectively. Also, the inhibition entry with Amphibalanus improvisus [6] and in the data set on Amphibalanus improvisus [4] was “Active” throughout.

Broadly, the MIC is the lowest concentration found to suppress growth. A high value points to a less susceptible organism. Consider `CC[C@H](C)[C@H](NC(=O)[C@H](CCCCN)NC(=O)[C@H](CCC(=O)O)NC(=O)[C@H](CCCCN)NC(=O)[C@H](CO)NC(=O)[C@H](CCCCN)NC(=O)[C@H](CCCNC(=N)N)NC(=O)[C@H](Cc1ccccc1)NC(=O)[C@H](Cc1ccccc1)NC(=O)[C@H](CC(=O)O)NC(=O)CNC(=O)[C@H](CC(C)C)NC(=O)[C@@H](N)CC(C)C)C(=O)NCC(=O)N[C@@H](CCCCN)C(=O)N[C@@H](CCC(=O)O)C(=O)N[C@@H](Cc1ccccc1)C(=O)N[C@@H](CCCCN)C(=O)N[C@@H](CCCNC(=N)N)C(=O)N[C@H](C(=O)N[C@H](C(=O)N[C@@H](CCC(N)=O)C(=O)N[C@@H](CCCNC(=N)N)C(=O)N[C@H](C(=O)N[C@@H](CCCCN)C(=O)N[C@@H](CC(=O)O)C(=O)N[C@@H](Cc1ccccc1)C(=O)N[C@@H](CC(C)C)C(=O)N[C@@H](CCCNC(=N)N)C(=O)N[C@@H](CC(N)=O)C(=O)N[C@@H](CC(C)C)C(=O)N[C@H](C(=O)N1CCC[C@H]1C(=O)N[C@@H](CCCNC(=N)N)C(=O)N[C@H](C(=O)N[C@@H](CCC(=O)O)C(=O)N[C@@H](CO)C(=O)O)[C@@H](C)O)C(C)C)[C@@H](C)CC)C(C)C)[C@@H](C)CC` [CATHELICIDIN], for which the MIC against Staphylococcus aureus [7] and against Escherichia coli [8] was 1 µM (≈ 4.49 µg/mL) in each case.
